Legend:
[1] = target: T1, Human TRPA1 (hTRPA1) (Homo sapiens, UniProt O75762); assay: TRPA1 Activation Test 2: intracellular Ca2+ imaging assay 2-1 to 2-3, hTRPA1 stably expressing cell line; assay type: cell-based; settings: for TRPA1 activation rate: Table 7; for TRPA1 activation rate, With antagonist: A-967079 1 μM; for TRPA1 activation rate, With antagonist / TRPA1 activation rate, Without antagonist: Table 8
T1 construct: expressed in transfected cells
Experimental: DNAs encoding genes described in the following Table 2 were inserted into pcDNA 5/TO vector (Invitrogen) to prepare various expression vectors.
These expression vectors were transfected into T-REx™_293 cells (Invitrogen) by a conventional method using Lipofectamine LTX (Invitrogen). Then, various transfectants were cultured and cloned by a conventional method using Dulbecco's Modified Eagle Medium (DMEM, Nacalai Tesque Inc.), containing 10% fetal bovine serum (FBS, Cytiva), […] of hygromycin B, and 5 μg/mL of blasticidin S, as a drug selection medium to obtain a hTRPA1 stably expressing cell line, a hTRPV1 stably expressing cell line, and a hTRPM8 stably expressing cell line.
(§1) A hTRPA1 stably expressing cell line in which expression of hTRPA1 had been induced in advance by a conventional method was prepared in a 96 well clear bottom plate, and the hTRPA1 activating action of rhein (produced by Tokyo Chemical Industry Co., Ltd.) was tested. Specifically, after each well was washed with PBS, 50 μL of an assay buffer (Hanks' balanced salt solution containing no calcium ion or magnesium ion that contained 1 mM of CaCl2 dihydrate, 20 mM of HEPES, and 0.1% BSA) containing calcium fluorescent indicator Calbryte™ 520 AM (produced by AAT Bioquest) in a final concentration of 4 μM was added, followed by incubating at 33° C. for 45 minutes. After washing with the assay buffer, 100 μL of the assay buffer was added to each well. This plate was set to FlexStation 3 (Molecular Devices, LLC), and a fluorescence intensity (excitation wavelength 490 nm, fluorescence wavelength 525 nm) at 31° C. was measured every two seconds, and 30 seconds after the start of the measurement, 100 μL of an assay buffer containing a test sample (allyl isothiocyanate (AITC) of positive control or rhein) which was prepared to have a certain final concentration or DMSO was added. Then, a well in which an assay buffer containing ionomycin (having a final concentration of 10 μM after the addition) instead of the test samples was added was also prepared as a reference for fluorescence intensity.
(§2) The measurement was continued from the start of the measurement up to 120 seconds, and the TRPA1 activation ability of the test samples was calculated in accordance with the following formula.
Activation rate (%)=(Fmax[s]−F0)/(Fmax[i]−F0)×100 • Fmax[s]: The maximum value of the fluorescence intensity when the test sample or positive control was added • F0: The average value of the fluorescence intensity for 20 seconds after the start of the measurement (base line) • Fmax[i]: The maximum value of the fluorescence intensity when ionomycin was added
The TRPA1 activation ability of each test sample was measured in the same manner as in the above (2) except the test was conducted with A-967079 (1 μM), which is a TRPA1-specific antagonist, or without A-967079. In addition, intracellular Ca^2+ imaging assay was conducted in the same manner as in the above (2) except that a hTRPV1 stably expressing cell line, a hTRPM8 stably expressing cell line, or a Mock cell was used instead of the hTRPA1 stably expressing cell line. Note that capsaicin was used as positive control for the hTRPV1 stably expressing cell line, and icilin was used as positive control for the hTRPM8 stably expressing cell line.
A TRPA1 activation ability was measured in the same manner as in the above (2) by using, as a test sample, rhein or compounds described in the following Table 10, which had anthraquinone structures similar to rhein, at a concentration of 200 μM of the test sample.

[2] = system: Mock cell; assay: TRPA1 Activation Test 2: intracellular Ca2+ imaging assay 2-2, Mock cell; assay type: cell-based; settings: Table 9
Experimental: as §1, §2
Activation rate (%)=(Fmax[s]−F0)/(Fmax[i]−F0)×100 • Fmax[s]: The maximum value of the fluorescence intensity when the test sample or positive control was added • F0: The average value of the fluorescence intensity for 20 seconds after the start of the measurement (base line) • Fmax[i]: The maximum value of the fluorescence intensity when ionomycin was added […]

T1 sequence (O75762 whole entry): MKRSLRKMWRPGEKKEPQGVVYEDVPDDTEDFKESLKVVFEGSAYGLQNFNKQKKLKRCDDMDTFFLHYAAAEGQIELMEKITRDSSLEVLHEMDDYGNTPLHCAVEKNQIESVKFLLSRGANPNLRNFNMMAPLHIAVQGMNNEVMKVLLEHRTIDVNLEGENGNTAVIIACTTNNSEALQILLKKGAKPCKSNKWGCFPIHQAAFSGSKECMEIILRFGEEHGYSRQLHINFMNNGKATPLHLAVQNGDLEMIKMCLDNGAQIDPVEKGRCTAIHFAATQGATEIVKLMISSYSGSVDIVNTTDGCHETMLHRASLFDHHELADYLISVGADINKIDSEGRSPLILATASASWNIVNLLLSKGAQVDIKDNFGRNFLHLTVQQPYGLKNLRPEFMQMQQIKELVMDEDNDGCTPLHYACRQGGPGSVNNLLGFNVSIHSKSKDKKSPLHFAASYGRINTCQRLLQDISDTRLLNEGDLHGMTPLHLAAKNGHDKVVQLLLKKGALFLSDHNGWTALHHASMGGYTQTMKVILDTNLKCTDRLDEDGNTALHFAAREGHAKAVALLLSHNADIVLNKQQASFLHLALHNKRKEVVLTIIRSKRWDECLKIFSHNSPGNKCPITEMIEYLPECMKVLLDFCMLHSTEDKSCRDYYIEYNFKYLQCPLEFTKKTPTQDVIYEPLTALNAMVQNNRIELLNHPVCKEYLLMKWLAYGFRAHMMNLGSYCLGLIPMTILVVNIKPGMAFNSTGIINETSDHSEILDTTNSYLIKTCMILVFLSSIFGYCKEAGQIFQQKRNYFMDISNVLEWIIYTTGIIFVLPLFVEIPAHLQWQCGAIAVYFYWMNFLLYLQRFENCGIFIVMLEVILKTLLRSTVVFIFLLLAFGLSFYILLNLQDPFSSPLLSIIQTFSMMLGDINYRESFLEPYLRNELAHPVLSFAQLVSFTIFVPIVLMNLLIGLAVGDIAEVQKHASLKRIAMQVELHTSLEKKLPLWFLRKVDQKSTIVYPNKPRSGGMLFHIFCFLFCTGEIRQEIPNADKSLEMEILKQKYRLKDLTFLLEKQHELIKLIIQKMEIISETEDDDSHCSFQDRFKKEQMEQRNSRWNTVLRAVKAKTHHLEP

With `O=C(O)c1cc(O)c2c(c1)C(=O)c1cccc(O)c1C2=O` [Rhein, rhein] the “TRPA1 activating action with TRPA1-specific antagonist (in words)” value ([1]; A-967079) was “inhibited by the TRPA1-specific antagonist”, the “TRPA1 activating action (in words)” value ([1]; hTRPA1 stably expressing cell line) was “activated TRPA1 in concentration dependent manner” and the TRPA1 activation rate ([1]; test sample 1 μM) was 0.57 ± 0.0414%. It also gave a TRPA1 activation rate ([1]; test sample 10 μM) of 19.1 ± 1.00%, a TRPA1 activation rate ([1]; test sample 25 μM) of 41.1 ± 1.51% and a TRPA1 activation rate ([1]; test sample 50 μM) of 66.4 ± 1.45%. The TRPA1 activation rate ([1]; test sample 75 μM) was 69.7 ± 1.25%, the “TRPA1 activation rate, With antagonist” value ([1]; test sample 100 μM) was 3.26 ± 0.102 % and the TRPA1 activation rate ([1]; test sample 100 μM) was 75.5 ± 1.19%. For the same compound, the “TRPA1 activation rate, Without antagonist” value ([1]; test sample 100 μM) was 79.4 ± 4.08%, the “TRPA1 activation rate, With antagonist” value ([1]; test sample 200 μM) was 8.40 ± 0.238 % and the TRPA1 activation rate ([1]; test sample 200 μM) was 85.7 ± 1.62%. The “TRPA1 activation rate, Without antagonist” value ([1]; test sample 200 μM) was 82.1 ± 0.918%, the TRPA1 activation rates ([1]; test sample 200 μM, Table 10) was 85.7 ± 1.62% and the “Activation rate, Mock” value ([2]; test sample 100 μM) was 3.49 ± 0.0595%. The “Activation rate, Mock” value ([2]; test sample 200 μM) was 9.65 ± 0.143%.
